From US20090105189A1, “METHODS AND COMPOSITIONS FOR AMELIORATING OR INHIBITING DECLINE IN MEMORY OR INTELLIGENCE OR IMPROVING SAME” (priority 2006, published 2009) come the findings set out here.

Common to all, as to assay type: cell-based
The subject of assay [1] is PC12 cells. The assay can be described thus: Uptake of uridine into PC12 cells. As to conditions: P2Y receptor antagonists.
In assay [2] the test system is PLC/DAG/IP3 signaling pathway. The assay is described as follows: PI turnover (inositol phosphate formation) in NGF-differentiated PC12 cells. As to conditions: for Formation of IP (PI turnover): 1 hour. The protocol: Analysis of PI turnover was performed as described by ([…] et al, J Neurochem 69: 704-12, 1997). Briefly, cells were labeled metabolically for 36 h with 1.25 microCurie (μCi)/dish of myo-[2-^3H]inositol (17-0 Curie/mmol; Amersham Biosciences) in serum-free MEM, washed twice with Hank's balanced salt solution (HBSS), and treated for 15 min with 10 mM lithium chloride in HBSS. Drugs were added in the presence of 10 mM lithium for 60 min at 37° C. Cells were lysed with ice-cold methanol, and lipids were removed by extraction with chloroform/methanol/water (2:2:1 by volume). Labeled water-soluble inositol phosphates were separated from free [^3H]inositol by ion-exchange chromatography, using AG 1-X8 columns (Bio-Rad), and 1M ammonium formate and 0.1M formic acid as eluent. Radioactivity was quantified by liquid scintillation spectrometry. P2Y2, P2Y4 and P2Y6 receptors activate the phospholipase C/diacylglycerol/inositol triphosphate (PLC/DAG/IP3) signaling pathway. […] These findings indicate that UTP promotes neurite outgrowth via P2Y receptors-mediated stimulation of the IP signaling pathway.

The test system of a further assay is P2Y receptors. The assay can be described thus: P2Y receptor antagonism of uridine-enhanced NGF-stimulated neurite outgrowth in PC12 cells. As to conditions: PC12, 4 days, uridine 100 μM. The protocol:
(§1) PC12 cells were sparsely plated on collagen-coated 60 mm culture dishes in MEM containing 1% fetal bovine serum. […] All treatments were performed 24 h after plating. At the end of the treatment period, images were obtained with a phase-contrast Zeiss Axioplan 2 microscope, using OpenLab software. Six digital images were captured for each dish, for a total of 18 to 24 images per treatment group. Approximately 300 cells were quantified for each treatment group for each experiment. Experiments were performed in triplicate. Quantification of neurites, including neurite branching and neurite length, was performed by one more researchers blinded to experimental groups. Neurite length was measured using the public domain NIH software “Image J.” Processes longer than the diameter of the cell body were counted as neurites. Only process-bearing cells were analyzed.

Assay [3] relates to PC12 cells. The assay can be described thus: NGF-induced neurite outgrowth in PC12 cells. As to conditions: for Number of neurites per cell: PC12, with NGF. Here is the method: PC12 cells were maintained in Minimal Essential Medium (MEM; Invitrogen, Carlsbad, Calif.) supplemented with 10% fetal bovine serum (FBS) at 37° C. Experimental incubations were for 2 or 4 days in medium containing 50 ng/ml mouse 2.5 S (2.5 subunit) NGF and 1% FBS, with or without test compounds. NGF and FBS were obtained from Invitrogen.
as §1

In assay [4] the test system is PC12 cells. The assay is described as follows: Intracellular UTP and CTP levels in PC12 cells by HPLC. As to conditions: PC12, 2 days with NGF, vs NGF only. The protocol:
(§2) Brain tissue or cells was dissolved in methanol/chloroform (1:2 vol/vol), centrifuged, and the aqueous phase was dried under vacuum, resuspended in 100-200 μL water and separated by HPLC on an ion-exchange column (Alltech Hypersil APS-2, 5 μM, 250×4.6 mm). CDP-choline was eluted with a linear gradient of NaH2PO4 buffers A (1.75 mM NaH2PO4, pH 2.9) and B (500 mM, pH 4.5), which allowed resolution of CDP-choline from closely co-eluting substances such as UMP over 40 min. The retention time for CDP-choline was 9.5 min. Individual nucleotide peaks were detected by UV absorption at […], and were identified by comparison with the positions of authentic standards, as well as by the addition of nucleotide standards to selected samples.
Levels of intracellular UTP and CTP were analyzed by HPLC as described for Example 5, except that 5 mM NaH2PO4, pH 2.65 was used as buffer A.

Assay [5] has as its system P2Y2, P2Y4 and P2Y6 receptors. The assay is described as follows: P2Y receptor expression in NGF-differentiated PC12 cells. The settings on record: vs NGF alone. Here is the method:
Western blots utilized rabbit anti-P2Y2, anti-P2Y4 (both from Calbiochem); or rabbit anti-P2Y6 (Novus Biologicals, Littleton, Colo.). PC12 cells were treated as described above, except they were grown on 12 mm glass cover slips ([…] & Co., Vernon Hills, Ill.) coated with collagen. Proteins were visualized using immunofluorescence. […] For P2Y2 and P2Y4 visualization, control cultures were incubated with primary antibody plus a control antigen in order to ensure that the immuno-staining would be specific. Control antigen was not available for the P2Y6 receptor. Cells were then incubated in fluorochrome-conjugated secondary antibodies for 1 hour (goat anti-rabbit ALEXA 488 and goat anti-mouse ALEXA 568; Molecular Probes, Eugene, Oreg.) and mounted on glass slides with mounting media with or without DAPI (Vector Laboratories, Burlingame, Calif.). Control antigens provided with the primary antibodies were used to ensure that immuno-staining was specific. […] To determine whether these receptors participate in the mechanism by which extracellular UTP affects neurite outgrowth, it was first determined whether the receptors are expressed in PC 12 cells, and whether exposure to NGF alters their expression, PC 12 cells were treated for 0-7 days with NGF and levels of the receptors measured. […]

The test system of another assay is PC 12 cells. The assay is described as follows: Intracellular CDP-choline levels in PC12 cells treated with uridine. The settings on record: uridine treatment, after 50 minutes. The protocol:
as §2

Consider `Cc1nc(N=Nc2ccc(S(=O)(=O)O)cc2S(=O)(=O)O)c(COP(=O)(O)O)c(C=O)c1O` [PPADS, pyridoxal-phosphate-6-azophenyl-2′,4′ disulfonic acid], for which the “Inhibition of uptake of uridine into PC12 cells” value (shortened to “Inhibition”) in the assay with PC12 cells [1] is “None of the P2Y receptor antagonists inhibited”. In addition, the “Block of UTP-stimulated IP signaling” value in assay [2] (NGF-differentiated PC12, antagonist 100 μM) is “significantly (p<0.05) blocked”. For the same compound, the “Block of uridine enhancement of NGF-stimulated neurite outgrowth” value (from here on “Block … of NGF-stimulated neurite outgrowth”) with P2Y receptors (antagonist 30 μM) is listed as “significantly (p<0.05 or 0.001) blocked”.
For the compound `Nc1c(S(=O)(=O)O)cc(Nc2ccc(Nc3nc(Cl)nc(Nc4cccc(S(=O)(=O)O)c4)n3)c(S(=O)(=O)O)c2)c2c1C(=O)c1ccccc1C2=O` [RB-2, reactive blue 2], in the assay with PC12 cells [1], the “Inhibition” value is “None of the P2Y receptor antagonists inhibited”. Besides, in the assay with P2Y receptors (antagonist 10 μM), the “Block … of NGF-stimulated neurite outgrowth” value is “significantly (p<0.05 or 0.001) blocked”.
Turning to `O=c1ccn([C@@H]2O[C@H](COP(=O)(O)OP(=O)(O)OP(=O)(O)O)[C@@H](O)[C@H]2O)c(=O)[nH]1` [UTP, uridine-5′-triphosphate], the “Neurite outgrowth (neurites per cell)” value with PC12 cells [3] (PC12, NGF, 10 and 50 μM, 4 days, vs NGF only) was “significantly (p<0.01) enhanced”. Further, the “Formation of IP (PI turnover)” value in assay [2] (NGF-differentiated PC12, 100 μM) was “significantly increased”. For the same compound, in the assay with PC12 cells [4] (100 μM), the “Intracellular CTP levels” value is given as “did not significantly affect” and the “Intracellular UTP levels” value was “did not significantly affect”.
For `Nc1ccn([C@@H]2O[C@H](CO)[C@@H](O)[C@H]2O)c(=O)n1` [cytidine], the Neurite outgrowth result in the assay with PC12 cells [3] (NGF-exposed PC12 cells, cytidine treatment) was “had no effect on neurite outgrowth”. Besides, in the assay with PC12 cells [4] (50 μM), the “Intracellular CTP levels” value is recorded as “did not significantly affect” and the “Intracellular UTP levels” value is given as “did not significantly affect”.
Turning to `Cc1ccc(C(=O)Nc2ccc(S(=O)(=O)O)c3cc(S(=O)(=O)O)cc(S(=O)(=O)O)c23)cc1NC(=O)c1cccc(NC(=O)Nc2cccc(C(=O)Nc3cc(C(=O)Nc4ccc(S(=O)(=O)O)c5cc(S(=O)(=O)O)cc(S(=O)(=O)O)c45)ccc3C)c2)c1` [suramin], in the assay with PC12 cells [1], the “Inhibition” value is listed as “None of the P2Y receptor antagonists inhibited”. Moreover, the “Block … of NGF-stimulated neurite outgrowth” value in the assay with P2Y receptors (antagonist 30 μM) is on record as “significantly (p<0.05 or 0.001) blocked”.
Turning to `O=c1ccn([C@@H]2O[C@H](CO)[C@@H](O)[C@H]2O)c(=O)[nH]1` [uridine], the “Expression of P2Y2, P2Y4 and P2Y6 receptors” value in assay [5] was “did not affect the expression of the receptors”. Further, the Average neurite length result in the assay on PC12 cells [3] (NGF-differentiated PC12 cells) is “did not significantly affect”. For the same compound, in the assay on PC12 cells [3] (PC12, NGF, 50 μM, 4 days, vs NGF only), the “Number of neurite branch points per cell” value was “significantly (p<0.01) increased”. For the same compound, the Production of neurites result with PC12 cells [3] (PC12, absence of NGF, 50 μM, 2 or 4 days) is “did not result in the production of neurites”. Further, the “Number of neurites per cell” value in the assay with PC12 cells [3] (2-day treatment or lower concentrations (10, 25 μM)) was “had no effect”. Besides, the “Number of neurites per cell” value with PC12 cells [3] (50-200 μM, 4 days) is “significantly (p<0.01 or 0.001) enhanced”. In addition, the “Intracellular CDP-choline levels” value with PC 12 cells was “statistically significant increase”. In addition, the “Formation of IP (PI turnover)” value in assay [2] (NGF-differentiated PC12, 50 μM) is recorded as “significantly increased”. In the assay with PC12 cells [4] (50 μM), the “Intracellular CTP levels” value is reported as “significantly (p<0.05) increased” and the “Intracellular UTP levels” value is “significantly (p<0.05) increased”.
